In ChEMBL document CHEMBL4190174 (2016):
The source made the active and inactive calls. The rule behind the calls is not given here.

How the values were obtained:
SNB-19 [1] = assay: Growth inhibition of empty vector transfected human SNB19 cells after 7 days by MTT assay; format: functional; conditions: SNB-19, 168 h
SNB-19 [2] = assay: Growth inhibition of MGMT-transfected human SNB19 cells after 7 days by MTT assay; format: functional; conditions: SNB-19, 168 h
U373 MG [3] = assay: Growth inhibition of empty vector transfected human U373 cells after 7 days by MTT assay; format: functional, U-373MG ATCC; conditions: 168 h
U373 MG [4] = assay: Growth inhibition of MGMT-transfected human U373 cells after 7 days by MTT assay; format: functional, U-373MG ATCC; conditions: 168 h
dsDNA [5] = assay: Induction of double stranded DNA break in MGMT-transfected human U373 cells assessed as increase in gamma-H2AX level at 100 uM after 72 hrs by flow cytometry relative to control; format: cell-based
[6] = Growth inhibition of human SNB19VR cells by MTT assay; format: functional
[7] = Growth inhibition of human U373VR cells by MTT assay; format: functional
HCT-116 [8] = assay: Growth inhibition of human HCT116 cells harboring hMLH1 mutation relative to temozolomide; format: functional
DLD-1 [9] = assay: Growth inhibition of human DLD1 cells harboring hMSH6 mutation relative to temozolomide; format: functional
Escherichia coli = assay: Induction of Escherichia coli linearized pBR322 DNA alkylation at clusters of 3/5 guanines using 5'-end labeled [gamma32P]ATP primer after 2 hrs by PAGE based taq polymerase stop assay
DNA [10] = assay: Induction of Escherichia coli pBR322 DNA cleavage assessed as covalent modification at N-7 guanine at 10 to 1000 uM after 2 hrs by PAGE based autoradiographic method; format: nucleic-acid assay
DNA [11] = assay: Induction of Escherichia coli pBR322 DNA interstrand cross linking using 5'-end labeled [gamma32P]ATP primer at <=1000 uM after 2 to 40 hrs by PAGE based autoradiographic method; format: nucleic-acid assay
dsDNA [12] = assay: Induction of double stranded DNA break in MGMT-transfected human U373 cells assessed as increase in gamma-H2AX level at 100 uM after 72 hrs by flow cytometry; format: cell-based
SNB-19 [13] = assay: Ratio of GI50 for MGMT-transfected human SNB19 cells to GI50 for empty vector transfected human SNB19 cells; format: functional
U373 MG [14] = assay: Ratio of GI50 for MGMT-transfected human U373 cells to GI50 for empty vector transfected human U373 cells; format: functional, U-373MG ATCC
SNB-19 [15] = assay: Potency index, ratio of temozolomide GI50 to compound GI50 for empty vector transfected human SNB19 cells; format: functional
U373 MG [16] = assay: Potency index, ratio of temozolomide GI50 to compound GI50 for empty vector transfected human U373 cells; format: functional, U-373MG ATCC
SNB-19 [17] = assay: Potency index, ratio of temozolomide GI50 to compound GI50 for MGMT-transfected human SNB19 cells; format: functional
U373 MG [18] = assay: Potency index, ratio of temozolomide GI50 to compound GI50 for MGMT-transfected human U373 cells; format: functional, U-373MG ATCC
[19] = tested on: Panel NCI-60 (60 carcinoma cell lines); assay: Growth inhibition of human NCI60 cells after 48 hrs by MTT assay; format: functional
HCT-116 [20] = assay: Growth inhibition of human HCT116 cells harboring hMLH1 mutation; format: functional
DLD-1 [21] = assay: Growth inhibition of human DLD1 cells harboring hMSH6 mutation; format: functional

Compound	GI50 (SNB-19 [1]) [µM]	GI50 (SNB-19 [2]) [µM]	GI50 (U373 MG [3]) [µM]	GI50 (U373 MG [4]) [µM]	other results
CSCn1nnc2c(C(N)=O)ncn2c1=O	107	151	59	56.5	–
NC(=O)c1nc[nH]c1N/N=N/CCO	441	> 500	383	336	–
NC(=O)c1ncn2c(=O)n(CCl)nnc12	34.6	31	29.3	24.4	–
C=CCn1nnc2c(C(N)=O)ncn2c1=O	258	239	141	199	–
CN(C)C(=O)Cn1nnc2c(C(N)=O)ncn2c1=O	67.7	73.4	85.1	92.5	–
CCOC(=O)C=[N+]=[N-]	> 800	> 800	> 800	> 800	–
NC(=O)c1ncn2c(=O)n(CC(=O)O)nnc12	265	296	69.5	140	–
NC(=O)c1ncn2c(=O)n(COCc3ccccc3)nnc12	52.2	48.5	16.5	28.8	–
C#CCn1nnc2c(C(N)=O)ncn2c1=O	35.6	37.8	37.6	36.1	fold change (FC) (dsDNA [5]): > 2; GI50 [6]: < 50 µM; GI50 [7]: < 50 µM; fold change (FC) (HCT-116 [8]): >10; fold change (FC) (DLD-1 [9]): >10; Activity (Escherichia coli): Dose-dependent effect; Activity (DNA [10]): Active; Activity (DNA [11]): inactive; Activity (dsDNA [12]): Active
NC(=O)c1ncn2c(=O)n(CC(=O)N3CCOCC3)nnc12	62.3	102	243	132	–
C#CC/N=N/Nc1[nH]cnc1C(N)=O	39.1	33.9	32	35.6	fold change (FC) (dsDNA [5]): > 2; Activity (Escherichia coli): Dose-dependent effect; Activity (DNA [10]): Active; Activity (dsDNA [12]): Active
NC(=O)c1ncn2c(=O)n(CCC(=O)O)nnc12	> 250	> 250	> 250	> 250	–
NC(=O)c1ncn2c(=O)n(CC3CC3)nnc12	286	223	386	149	–
NC(=O)c1nc[nH]c1N/N=N/CC(F)(F)F	68.8	131	209	423	–
NC(=O)c1nc[nH]c1N/N=N/C1CC1	> 500	> 500	> 500	> 500	–
CCOC(=O)CCn1nnc2c(C(N)=O)ncn2c1=O	367	255	129	143	–
COCn1nnc2c(C(N)=O)ncn2c1=O	30.8	37.9	26	33.1	–
CCOC(=O)Cn1nnc2c(C(N)=O)ncn2c1=O	52.4	61.1	63.2	55.6	–
CC(C)(C)C(=O)OCn1nnc2c(C(N)=O)ncn2c1=O	45	28	13.2	28.9	–
NC(=O)c1ncn2c(=O)n(CCCl)nnc12 [MITOZOLOMIDE]	10	68.4	22	40.3	RatioGI50 (SNB-19 [13]): >2; RatioGI50 (U373 MG [14]): >2; RatioGI50 (SNB-19 [15]): >3; RatioGI50 (U373 MG [16]): >3; RatioGI50 (SNB-19 [17]): 10; RatioGI50 (U373 MG [18]): 10

Compound	GI50 (SNB-19 [1]) [µM]	GI50 (SNB-19 [2]) [µM]	GI50 (U373 MG [3]) [µM]	GI50 (U373 MG [4]) [µM]	other results
NC(=O)Cn1nnc2c(C(N)=O)ncn2c1=O	38	95.3	65.4	72.3	–
Cn1nnc2c(C(N)=O)ncn2c1=O [TEMOZOLOMIDE]	45.6	526	72.9	395	GI50 [19]: > 100 µM; RatioGI50 (SNB-19 [13]): 11; RatioGI50 (U373 MG [14]): 5; GI50 [6]: 280 µM; GI50 [7]: 289 µM; GI50 (HCT-116 [20]): > 500 µM; GI50 (DLD-1 [21]): > 500 µM; Activity (DNA [11]): inactive
CS(=O)(=O)Cn1nnc2c(C(N)=O)ncn2c1=O	13.8	18.3	20.2	7.5	–
CC(=O)OCn1nnc2c(C(N)=O)ncn2c1=O	48.3	40.4	11.8	39.4	–
C[S+]([O-])Cn1nnc2c(C(N)=O)ncn2c1=O (stereo unspecified)	26.8	20.1	13.7	14.4	–
CC#CCn1nnc2c(C(N)=O)ncn2c1=O	39.6	37.6	36.5	33	–
COCC/N=N/Nc1[nH]cnc1C(N)=O	> 500	> 500	> 500	> 500	–
CCOC(=O)C/N=N/Nc1[nH]cnc1C(N)=O	33.6	37.4	30.3	23.4	–
NC(=O)c1nc[nH]c1N/N=N/CC(F)F	68.8	70.3	205	248	–
NC(=O)c1ncn2c(=O)n(C3CC3)nnc12	428	> 500	306	360	–
C[Si](C)(C)C#CCn1nnc2c(C(N)=O)ncn2c1=O	39.1	39.5	30.3	30.7	–
NC(=O)CCn1nnc2c(C(N)=O)ncn2c1=O	321	398	138	355	–
N#CC/N=N/Nc1[nH]cnc1C(N)=O	111	271	106	242	–
CNC(=O)Cn1nnc2c(C(N)=O)ncn2c1=O	65.8	246	260	263	–
COC(=O)Cn1nnc2c(C(N)=O)ncn2c1=O	47.5	49	32.1	46.4	–
NC(=O)c1nc[nH]c1N/N=N/CC1CC1	> 500	> 500	> 500	> 500	–
NC(=O)c1ncn2c(=O)n(CCO)nnc12	204	417	288	322	–
COC(=O)C/N=N/Nc1[nH]cnc1C(N)=O	47.7	49.7	32.6	46.4	–
NC(=O)c1ncn2c(=O)n(CO)nnc12	46.2	42.1	–	–	–
